Laboratory results published in patent publication US20240336640A1, “CALCIUM OXALATE CRYSTALLIZATION INHIBITORS FOR RENAL DISORDERS” (VIFOR (INTERNATIONAL) AG, priority 2018, published 2024).
Where a name gives a salt, the structure may show the parent alone.

Test: CaOx crystallization inhibition assay in human urine, pH 6.2
Settings: human urine pH 6.2, 1 mM sodium oxalate, 7 h, light microscopy
Experimental: For comparison of the compounds' efficacy to inhibit calcium oxalate (CaOx) crystallization a simple in vitro assay in urine was used. In brief, human urine (pH 6.2) was mixed with compound, followed by the addition of 1 mM sodium oxalate inducing CaOx crystallization. After 7 hours of incubation at room temperature crystallization was measured by light microscopy, employing an automated image analysis to detect, classify and quantify the CaOx crystal types formed, namely CaOx monohydrate (COM) and CaOx dihydrate (COD).
Human urine was stored at −20° C. in 50 mL aliquots. After thawing, aliquots were centrifuged, filtered using a 0.45-μm syringe filter and pH set to 6.2. Oxalate concentrations of human urine samples were determined using the Oxalate Assay kit following the kit protocol, and found to be <100 μM for the samples used. Dilutions of sodium and compounds were prepared in Bis Tris buffer (50 mM, 150 mM NaCl, pH 6.2). Urine was mixed with compound in Eppendorf tubes, and subsequently sodium oxalate was added. The final assay mixture of 1 mL total volume contained 90% urine, 5% sodium oxalate (1 mM) and 5% compound dilution. Immediately upon sodium oxalate addition, the final assay mixture was vortexed and added to the imaging slide (8 well glass bottom chamber, ibidi). 400 μL per well were added and two wells for each sample were prepared. Crystallization was assessed after 7 h incubation at room temperature, using a Leica CTR6000 microscope (Leica Microsystems, Wetzlar, Germany) in brightfield mode. For visualization, images with a 40× objective were used. For quantification 2 wells/sample with five 20× objective images each were used. Without addition of sodium oxalate no crystallization was observed.
Quantification and classification of crystals was performed in Matlab (version R2016b or R2018b). In brief, crystals were segmented using edge detection and watershed algorithms and subsequently shape, intensity and texture features for each crystal were extracted. The extracted features served as input for a semi-supervised classification approach to distinguish COM (class 0), COD (class 1), not determined structures (class 2) and background noise (class 3). A cubic support vector machine (SVM) classifier was trained and subsequently used for classification of testing images.
All testing images were processed using the Batch Processing App. Efficacy of compounds to inhibit CaOx crystallization was compared by analysing the total area per field of view for each crystal type. The sum of the total area of the three crystal classes—COM, COD and unclassified, was normalized to the control within each experiment (N=3). Due to the inherent variability of the crystallization process itself, normalization within each experiment decreased the effect of inter-experimental variability.

With COCCOCCO[C@@H]1C(OP(=O)(O)O)[C@H](OCCOCCOC)[C@@H](OP(=O)(O)O)C(OP(=O)(O)O)[C@H]1OP(=O)(O)O (stereo partly drawn) [(OEG2)2-IP4] as the molecule, how does the “50% complete inhibition (<50% total area)” value (“50% complete inhibition” below) read?
The value was >100 µM.

What about the “COM inhibition (<5% of total area)” value of the same molecule?
Its value is >100 µM.

What about the “Complete inhibition (i.e <5% total area)” value of the same molecule?
Its value is >100 µM.

With O=C(O)CC(O)(CC(=O)O)C(=O)O [Citrate, Trisodium citrate dihydrate] as the molecule, how does the “50% complete inhibition” value read?
The value was >100 µM.

What about the “COM inhibition (<5% of total area)” value of the same molecule?
The value was >100 µM.

And the “Complete inhibition (i.e <5% total area)” value?
The value was >100 µM.

For O=P(O)(O)O[C@H]1[C@H](OP(=O)(O)O)[C@@H](OP(=O)(O)O)[C@H](OP(=O)(O)O)[C@@H](OP(=O)(O)O)[C@H]1OP(=O)(O)O [IP6, inositol hexaphosphate], which “50% complete inhibition” value is on record?
The value was 30 µM.

And the “COM inhibition (<5% of total area)” value?
The value was 3 µM.

What about the “Complete inhibition (i.e <5% total area)” value of the same molecule?
Its value is >30 µM.

Which “50% complete inhibition” value does the source give for COCCOCCOCCOCCOCCOCCOCCOCCOCCOCCOCCO[C@@H]1[C@@H](OP(=O)(O)O)[C@H](OP(=O)(O)O)[C@@H](OP(=O)(O)O)[C@@H](OP(=O)(O)O)[C@H]1OP(=O)(O)O [OEG11-IP5] here?
The value was 11 µM.

What about the “COM inhibition (<5% of total area)” value of the same molecule?
The value was 100 µM.

And the “Complete inhibition (i.e <5% total area)” value?
Its value is >100 µM.
